According to patent US20180221306A1, “PHARMACEUTICAL COMPOSITIONS OF 5-HYDROXY-2-METHYLNAPHTHALENE-1,4-DIONE” (PellFiCure Pharmaceuticals, Inc., priority 2016, published 2018):
Where two headings read alike, the source gives them in different places. Marks after values point to notes of the source that are not given here.

How the values were obtained:
[1] = Forced degradation: solution stability in aqueous media (HPLC)
mice = conditions: over a period of 14 days; cited from earlier work
[2] = Single-dose maximum tolerated dose (MTD) study; type: in vivo, rat; conditions: both sexes, Sprague Dawley, rat, in vivo; rats, oral gavage, Compound I in Carrier A
Procedure: (§1) A single-dose maximum tolerated dose (MTD) phase A study and a 7-day dose range-finding (DRF) phase B study were conducted in Sprague Dawley rats by MPI Research, Inc. (Mattawan, Mich.). A total of 62 males and 62 females rats were assigned to the study, which was performed in accordance with all current regulations. Animals were housed in standard conditions and had ad libitum access to food and water. Healthy animals of each sex were randomized into treatment groups using a standard, by weight, measured value randomization procedure. Compound I was administered by oral gavage, once at each dose level in Phase A (acute), or once daily for 7 consecutive days in Phase B. Oral gavage was chosen because the oral route is the intended route of administration in humans. Animals were observed twice daily for morbidity and mortality and were euthanatized for humane reasons where appropriate. An initial starting dose of 50 mg/kg was used for Phase A. Subsequent doses were increased or decreased based on the response to the preceding dose. […] The dose levels used in Phase B were based on the MTD identified in Phase A.
(§2) A single-dose maximum tolerated dose (MTD) study and a seven consecutive day dose-range finding study were carried out in Sprague Dawley by orally administering a formulation of Compound I in Carrier A. In the MTD phase, doses of 50, 100, 200 and 300 mg/kg were administered once to Sprague Dawley rats by oral gavage. The single-dose MTD of Compound I in rats was found at 100 mg/kg.

Sprague Dawley rats = assay: Single-dose maximum tolerated dose (MTD) study; type: in vivo, rat; conditions: 200 or 300 mg/kg, once, oral gavage
Procedure: as §1, §2

rat = conditions: suspension in 0.5% of gum acacia in water or in propylene glycol, oral; cited from earlier work
[3] = 5 mg/g

With `CC1=CC(=O)c2c(O)cccc2C1=O` [Compound I, 5-hydroxy-2-methylnaphthalene-1,4-dione] the “Solution Stability in Aqueous Media, Purity” value (“Solution Stability … Purity” for short) ([1]; pH 1, 50% DMSO, 25° C./60% RH, t = 0) was 99.32 % Area, the “Solution Stability … Purity” value ([1]; pH 1, 50% DMSO, 25° C./60% RH, t = 1 week) was 98.83 % Area and the “Solution Stability … Purity” value ([1]; pH 1, 50% DMSO, 25° C./60% RH, t = 2 week) was 98.73 % Area. For the same compound, the “Solution Stability … Purity” value ([1]; pH 1, 50% DMSO, 40° C./75% RH, t = 1 week) was 98.12 % Area, the “Solution Stability … Purity” value ([1]; pH 1, 50% DMSO, 40° C./75% RH, t = 2 week) was 95.79 % Area and the “Solution Stability … Purity” value ([1]; pH 2, 50% DMSO, 25° C./60% RH, t = 0) was 98.83 % Area. The “Solution Stability … Purity” value ([1]; pH 2, 50% DMSO, 25° C./60% RH, t = 1 week) was 98.48 % Area, the “Solution Stability … Purity” value ([1]; pH 2, 50% DMSO, 25° C./60% RH, t = 2 week) was 96.90 % Area and the “Solution Stability … Purity” value ([1]; pH 2, 50% DMSO, 40° C./75% RH, t = 1 week, precipitation observed) was 93.43^‡ % Area. For the same compound, the “Solution Stability … Purity” value ([1]; pH 2, 50% DMSO, 40° C./75% RH, t = 2 week, precipitation observed) was 85.79^‡ % Area, the “Solution Stability … Purity” value ([1]; pH 3, 50% DMSO, 25° C./60% RH, t = 0) was 98.85 % Area and the “Solution Stability … Purity” value ([1]; pH 3, 50% DMSO, 25° C./60% RH, t = 1 week) was 97.09 % Area. The “Solution Stability … Purity” value ([1]; pH 3, 50% DMSO, 25° C./60% RH, t = 2 week) was 95.26 % Area, the “Solution Stability … Purity” value ([1]; pH 3, 50% DMSO, 40° C./75% RH, t = 1 week) was 88.81 % Area and the “Solution Stability … Purity” value ([1]; pH 3, 50% DMSO, 40° C./75% RH, t = 2 week) was 72.78 % Area. For the same compound, the “Solution Stability … Purity” value ([1]; pH 4, 50% DMSO, 25° C./60% RH, t = 0) was 98.73 % Area, the “Solution Stability … Purity” value ([1]; pH 4, 50% DMSO, 25° C./60% RH, t = 1 week, precipitation observed) was 96.77^‡ % Area and the “Solution Stability … Purity” value ([1]; pH 4, 50% DMSO, 25° C./60% RH, t = 2 week, precipitation observed) was 93.81^‡ % Area. The “Solution Stability … Purity” value ([1]; pH 4, 50% DMSO, 40° C./75% RH, t = 1 week, precipitation observed) was 87.32^‡ % Area, the “Solution Stability … Purity” value ([1]; pH 4, 50% DMSO, 40° C./75% RH, t = 2 week, precipitation observed) was 73.78^‡ % Area and the “Solution Stability … Purity” value ([1]; pH 5, 50% DMSO, 25° C./60% RH, t = 0) was 98.46 % Area. The “Solution Stability … Purity” value ([1]; pH 5, 50% DMSO, 25° C./60% RH, t = 1 week, precipitation observed) was 92.26^‡ % Area, the “Solution Stability … Purity” value ([1]; pH 5, 50% DMSO, 25° C./60% RH, t = 2 week, precipitation observed) was 83.09^‡ % Area and the “Solution Stability … Purity” value ([1]; pH 5, 50% DMSO, 40° C./75% RH, t = 1 week, precipitation observed) was 58.98^‡ % Area. For the same compound, the “Solution Stability … Purity” value ([1]; pH 5, 50% DMSO, 40° C./75% RH, t = 2 week, precipitation observed) was 29.30^‡ % Area, the “Solution Stability … Purity” value ([1]; pH 6, 50% DMSO, 25° C./60% RH, t = 0) was 97.78 % Area and the “Solution Stability … Purity” value ([1]; pH 6, 50% DMSO, 25° C./60% RH, t = 1 week) was 69.37 % Area. The “Solution Stability … Purity” value ([1]; pH 6, 50% DMSO, 25° C./60% RH, t = 2 week, precipitation observed) was 44.92^‡ % Area, the “Solution Stability … Purity” value ([1]; pH 6, 50% DMSO, 40° C./75% RH, t = 1 week) was <10 % Area and the “Solution Stability … Purity” value ([1]; pH 6, 50% DMSO, 40° C./75% RH, t = 2 week, precipitation observed) was <10^‡ % Area. The “Solution Stability … Purity” value ([1]; pH 7, 50% DMSO, 25° C./60% RH, t = 0) was 91.09 % Area, the “Solution Stability … Purity” value ([1]; pH 7, 50% DMSO, 25° C./60% RH, t = 1 week) was <10 % Area and the “Solution Stability … Purity” value ([1]; pH 7, 50% DMSO, 25° C./60% RH, t = 2 week, precipitation observed) was <10^‡ % Area. The “Solution Stability … Purity” value ([1]; pH 7, 50% DMSO, 40° C./75% RH, t = 1 week) was <10 % Area, the “Solution Stability … Purity” value ([1]; pH 7, 50% DMSO, 40° C./75% RH, t = 2 week, precipitation observed) was <10^‡ % Area and the “Solution Stability … Purity” value ([1]; pH 8, 50% DMSO, 25° C./60% RH, t = 0) was 81.64 % Area. The “Solution Stability … Purity” value ([1]; pH 8, 50% DMSO, 25° C./60% RH, t = 1 week) was <10 % Area, the “Solution Stability … Purity” value ([1]; pH 8, 50% DMSO, 25° C./60% RH, t = 2 week, precipitation observed) was <10^‡ % Area and the “Solution Stability … Purity” value ([1]; pH 8, 50% DMSO, 40° C./75% RH, t = 1 week) was <10 % Area. For the same compound, the “Solution Stability … Purity” value ([1]; pH 8, 50% DMSO, 40° C./75% RH, t = 2 week, precipitation observed) was <10^‡ % Area, the “Solution Stability … Purity” value ([1]; pH 9, 50% DMSO, 25° C./60% RH, t = 0) was 89.84 % Area and the “Solution Stability … Purity” value ([1]; pH 9, 50% DMSO, 25° C./60% RH, t = 1 week) was 30.06 % Area. The “Solution Stability … Purity” value ([1]; pH 9, 50% DMSO, 25° C./60% RH, t = 2 week, precipitation observed) was 7.58^‡ % Area, the “Solution Stability … Purity” value ([1]; pH 9, 50% DMSO, 40° C./75% RH, t = 1 week) was <10 % Area and the “Solution Stability … Purity” value ([1]; pH 9, 50% DMSO, 40° C./75% RH, t = 2 week, precipitation observed) was <10^‡ % Area. For the same compound, the “Solution Stability … Purity” value ([1]; pH 10, 50% DMSO, 25° C./60% RH, t = 0) was 88.46 % Area, the “Solution Stability … Purity” value ([1]; pH 10, 50% DMSO, 25° C./60% RH, t = 1 week) was 37.43 % Area and the “Solution Stability … Purity” value ([1]; pH 10, 50% DMSO, 25° C./60% RH, t = 2 week, precipitation observed) was <10^‡ % Area. The “Solution Stability … Purity” value ([1]; pH 10, 50% DMSO, 40° C./75% RH, t = 1 week, precipitation observed) was <10^‡ % Area, the “Solution Stability … Purity” value ([1]; pH 10, 50% DMSO, 40° C./75% RH, t = 2 week, precipitation observed) was <10^‡ % Area and the “Solution Stability … Purity” value ([1]; water, 25° C./60% RH, t = 0) was 96.33 % Area. For the same compound, the “Solution Stability … Purity” value ([1]; water, 25° C./60% RH, t = 1 week, precipitation observed) was 66.97^‡ % Area, the “Solution Stability … Purity” value ([1]; water, 25° C./60% RH, t = 2 week, precipitation observed) was 53.76^‡ % Area and the “Solution Stability … Purity” value ([1]; water, 40° C./75% RH, t = 1 week, precipitation observed) was 45.09^‡ % Area. For the same compound, the “Solution Stability … Purity” value ([1]; water, 40° C./75% RH, t = 2 week, precipitation observed) was 44.20^‡ % Area, the LD50 (mice) was 8 mg/kg and the MTD [2] was 100 mg/kg. For the same compound, the Adverse clinical events (Sprague Dawley rats) was “decreased activity, abnormal body carriage and piloerection”, the “Mortality after acute administration” value (Sprague Dawley rats) was “unscheduled deaths in male rats on Days 1 and 2 but not in females” and the LD50 (rat) was 65 mg/kg. The “Solution Stability in Aqueous Media, % Potency” value (“Solution Stability … % Potency” below) ([3]; 0 week) was 92.86%, the “Solution Stability … % Potency” value ([3]; 0 week, pH 1) was 99.62% and the “Solution Stability … % Potency” value ([3]; 0 week, pH 2) was 98.23%. The “Solution Stability … % Potency” value ([3]; 0 week, pH 3) was 96.53%, the “Solution Stability … % Potency” value ([3]; 0 week, pH 4) was 96.76% and the “Solution Stability … % Potency” value ([3]; 0 week, pH 5) was 97.34%. For the same compound, the “Solution Stability … % Potency” value ([3]; 0 week, pH 6) was 94.27%, the “Solution Stability … % Potency” value ([3]; 0 week, pH 7) was 87.84% and the “Solution Stability … % Potency” value ([3]; 0 week, pH 8) was 78.28%. For the same compound, the “Solution Stability … % Potency” value ([3]; 0 week, pH 9) was 85.90%, the “Solution Stability … % Potency” value ([3]; 0 week, pH 10) was 86.55% and the “Solution Stability … % Potency” value ([3]; 1 week, pH 7) was <10%. For the same compound, the “Solution Stability … % Potency” value ([3]; 1 week, pH 8) was <10%, the “Solution Stability … % Potency” value ([3]; 2 week, pH 7) was <10^‡ % and the “Solution Stability … % Potency” value ([3]; 2 week, pH 8) was <10^‡ %. For the same compound, the “Solution Stability … % Potency” value ([3]; 2 week, pH 9) was <10^‡ %, the “Solution Stability … % Potency” value ([3]; 2 week, pH 10) was <10^‡ % and the “Initial Compound I remaining in the solution” value ([3]; buffer, 168 h, pH 7) was “less than 10%”.
